Test results from ChEMBL document CHEMBL1795222, “Pyridazine-derived γ-secretase modulators” (Bioorg Med Chem Lett, 2011).
The source made the active and inactive calls. The rule behind the calls is not given here.

Legend:
[1] = target: Gamma-secretase; assay: Inhibition of gamma-secretase in human SHSY5Y cells expressing Swedish variant of APP K595N/M596L assessed as reduction of amyloid beta 42 formation after 16 hrs by ELISA; type: cell-based; conditions: sh-sy5y
[2] = target: Gamma-secretase; assay: Inhibition of gamma-secretase in human SHSY5Y cells expressing Swedish variant of APP K595N/M596L assessed as reduction of amyloid beta 40 formation after 16 hrs by ELISA; type: cell-based; conditions: sh-sy5y
[3] = Inhibition of gamma-secretase expressed in african green monkey CV1 cells coexpressing Gal4 DNA-binding/transactivation domain assessed as inhibition of notch processing after 22 hrs by luciferase reporter assay; type: cell-based; conditions: CV-1, 22 h
[4] = test system: CV-1; assay: Agonist activity at gamma-secretase expressed in african green monkey CV1 cells coexpressing Gal4 DNA-binding/transactivation domain assessed as increase of notch processing at 10 uM after 22 hrs by luciferase reporter assay; type: cell-based
[5] = Drug level in rat brain at 30 mg/kg, po after 6 hrs; type: ADME, organism-based; parameters: dose 30 mg/kg, route oral; conditions: read-out: Drug uptake
[6] = Ratio of drug level in brain to blood in rat at 30 mg/kg, po after 6 hrs; type: ADME, organism-based; parameters: dose 30 mg/kg, route oral; conditions: read-out: BBR
[7] = test system: Rattus norvegicus; assay: Antialzheimer activity in rat assessed as reduction of amyloid beta 42 level in brain at 30 mg/kg, po after 6 hrs; type: functional; parameters: scale not given: the % may be the effect or the level left
[8] = Drug level in rat blood at 30 mg/kg, po after 6 hrs; type: ADME, organism-based; parameters: dose 30 mg/kg, route oral; conditions: read-out: Drug uptake
[9] = test system: SH-SY5Y; assay: Cytotoxicity against human SH-SY5Y cells assessed as effect of cell viability at 100 uM after 24 hrs by WST1 assay; type: cell-based
[10] = target: T1, Gamma-secretase (Homo sapiens) (UniProt Q96BI3+Q9NZ42+Q8WW43+P49768+Q92542+P49810); assay: Inhibition of gamma-secretase in human SHSY5Y cells expressing Swedish variant of APP K595N/M596L assessed as reduction of total amyloid beta level after 24 hrs by DELFIA; type: cell-based; conditions: SH-SY5Y
[11] = target: T1, Gamma-secretase (Homo sapiens); assay: Inhibition of gamma-secretase in human SHSY5Y cells expressing Swedish variant of APP K595N/M596L assessed as reduction of amyloid beta 40 level after 24 hrs by DELFIA; type: cell-based; conditions: SH-SY5Y
[12] = target: T1, Gamma-secretase (Homo sapiens); assay: Inhibition of gamma-secretase in human SHSY5Y cells expressing Swedish variant of APP K595N/M596L assessed as reduction of amyloid beta 42 level after 24 hrs by DELFIA; type: cell-based; conditions: SH-SY5Y
[13] = Volume of distribution at steady state in Sprague-Dawley rat at 1 mg/kg, iv and 2 mg/kg, po; type: ADME, organism-based; conditions: in vivo, read-out: Vdss
[14] = Clearance in Sprague-Dawley rat blood at 1 mg/kg, iv and 2 mg/kg, po; type: ADME, organism-based
[15] = Oral bioavailability in Sprague-Dawley rat at 2 mg/kg; type: ADME, organism-based; conditions: in vivo
[16] = Half life in Sprague-Dawley rat at 1 mg/kg, iv and 2 mg/kg, po; type: ADME, organism-based; conditions: in vivo

SMILES	pIC50 [1]	pIC50 [2]	IC50 [3]	also measured
CCc1cc(-c2ccc(-n3cnc(C)c3)c(OC)c2)nnc1N[C@@H](C)c1ccc(F)cc1	7.2	6.8	–	Activity [4]: > 30%
COc1cc(-c2cc(C(F)(F)F)c(N[C@@H](C)c3ccc(F)cc3)nn2)ccc1-n1cnc(C)c1	7	5.6	–	Activity [4]: > 30%
COc1cc(-c2cc(C(C)C)c(N[C@@H](C)c3ccc(F)cc3)nn2)ccc1-n1cnc(C)c1	7.3	7	–	Activity [4]: > 30%
COc1cc(-c2ccc(NC(C)(C)c3ccc(F)cc3)nn2)ccc1-n1cnc(C)c1	7	6.1	–	Activity [4]: > 30%
COc1cc(-c2ccc(NCc3ccc(F)cc3)nn2)ccc1-n1cnc(C)c1	6.5	6.2	> 20 µM	–
COc1cc(-c2ccc(N[C@@H](C)c3ccccc3)nn2)ccc1-n1cnc(C)c1	7.1	6.8	> 20 µM	–
COc1cc(-c2cc(C)c(N[C@@H](C)c3ccc(F)cc3)nn2)ccc1-n1cnc(C)c1 [listing 2 of 2 here]	–	–	–	inhibition [10]: Active; inhibition [11]: Dose-dependent effect; inhibition [12]: Dose-dependent effect
COc1cc(-c2ccc(N[C@@H](C)c3cccc(F)c3)nn2)ccc1-n1cnc(C)c1	7.2	6.9	> 20 µM	–
COc1cc(-c2nnc(N[C@@H](C)c3ccc(F)cc3)c(C)c2C)ccc1-n1cnc(C)c1	6.5	5.9	> 20 µM	–
COc1cc(-c2cc(C)c(N[C@@H](C)c3ccc(F)cc3)nn2)ccc1-n1cnc(C)c1.Cl	–	–	–	Vd [13]: 1.4 L/kg; clearance [14]: 5.1 mL/min/kg; bioavailability [15]: 98%; half-life [16]: 3.1 h
COC[C@H](Nc1ccc(-c2ccc(-n3cnc(C)c3)c(OC)c2)nn1)c1ccccc1	6.8	6.5	> 20 µM	–

Second part, led by results:

pIC50 [1]	pIC50 [2]	IC50 [3]	SMILES	also measured
7.3	6.9	10 µM	CC[C@H](Nc1ccc(-c2ccc(-n3cnc(C)c3)c(OC)c2)nn1)c1ccc(F)cc1	–
6.8	6.8	> 20 µM	COc1ccc([C@H](C)Nc2ccc(-c3ccc(-n4cnc(C)c4)c(OC)c3)nn2)cc1	–
6.9	5.8	15.8 µM	COc1cc(-c2cc(C#N)c(N[C@@H](C)c3ccc(F)cc3)nn2)ccc1-n1cnc(C)c1	–
7.3	6.9	> 20 µM	COc1cc(-c2ccc(N[C@@H](C)c3ccc(C(F)(F)F)cc3)nn2)ccc1-n1cnc(C)c1	–
7.4	6.8	20 µM	COc1cc(-c2ccc(N[C@H](c3ccc(F)cc3)C(C)(C)O)nn2)ccc1-n1cnc(C)c1	–
6.2	6	> 20 µM	COc1cc(-c2ccc(N[C@H](C)c3ccc(F)cc3)nn2)ccc1-n1cnc(C)c1	–
7.2	6.7	> 20 µM	COc1cc(-c2ccc(N[C@@H](C)c3ccc(F)cc3)nn2)ccc1-n1cnc(C)c1	–
6.7	6.3	15.8 µM	COc1cc(-c2nnc(N[C@@H](C)c3ccc(F)cc3)cc2C)ccc1-n1cnc(C)c1	–
7.2	6.7	10 µM	COc1cc(-c2cc(C)c(N[C@@H](C)c3ccc(F)cc3)nn2)ccc1-n1cnc(C)c1 [listing 1 of 2 here]	concentration at 6 h [5]: 9.09 µM; Kp at 6 h [6]: 0.56; Activity [7]: >20%; concentration at 6 h [8]: 16 µM; Activity [9]: Toxic
5.6	4.7	1 µM	COc1cc(-c2ccc(NC(=O)c3ccc(F)cc3)nn2)ccc1-n1cnc(C)c1	–
7.3	7.1	10 µM	COc1cc(-c2ccc(N[C@@H](C)c3ccccc3F)nn2)ccc1-n1cnc(C)c1	–
